The term melting point denotes the temperature, or range, at which the solid turns liquid.

Each structure is given as a SMILES string.

As for `CSc1cc(C)nc(SC)c1NC(=O)CN1CCN(CCSc2nc3ccccc3s2)CC1` [Example 31, 2-[4-[2-(benzothiazol-2-ylthio)ethyl]piperazin-1-yl]-N-(2,4-bis(methylthio)-6-methyl-3-pyridyl)acetamide], the melting point is 136 to 139 °C. The value for `CCSc1cc(C)nc(SCC)c1NC(=O)CN1CCN(CCSc2nc3ccccc3o2)CC1` [Example 34, 2-[4-[2-(benzoxazol-2-ylthio)ethyl]piperazin-1-yl]-N-[2,4-bis(ethylthio)-6-methyl-3-pyridyl]acetamide] was 108 to 109 °C. The value for `CCSc1cc(C)nc(SCC)c1NC(=O)CN1CCN(CCSc2nc3cccc(C(=O)OC)c3o2)CC1` [Example 35, 2-[4-[2-(7-methoxycarbonylbenzoxazol-2-ylthio)ethyl]piperazin-1-yl]-N-[2,4-bis(ethylthio)-6methyl-3-pyridyl)acetamide] was 118 to 119 °C. Compound `Cc1cc(SC(C)C)c(NC(=O)CN2CCN(CCSc3nc4ccccc4[nH]3)CC2)c(SC(C)C)n1` [Example 37, 2-[4-[2-(benzimidazol-2-ylthio)ethyl]piperazin-1-yl]-N-(2,4-bis(isopropylthio)-6-methyl-3-pyridyl)acetamide] returned a melting point of 186 to 188 °C. Turning to `COC(=O)c1cccc2nc(SCCN3CCN(CC(=O)Nc4c(SC(C)C)cc(C)nc4SC(C)C)CC3)oc12` [Example 39, N-[2,4-bis(isopropylthio)-6-methyl-3-pyridyl]-2-[4-[2-(7-methoxycarbonylbenzoxazol-2-ylthio)ethyl]piperazin-1-yl]acetamide], the melting point is 60 to 63 °C. The value for `COc1cc(C)nc(OC)c1NC(=O)CN1CCN(CCSc2nc3ccccc3o2)CC1` [Example 45, 2-[4-[2-(benzoxazol-2-ylthio)ethyl]piperazin-1-yl]-N-[2,4-dimethoxy-6-methyl-3-pyridyl)acetamide] was 113 to 115 °C; that for `CSc1ncnc(SC)c1NC(=O)CN1CCN(CCSc2nc3ccccc3o2)CC1` [Example 46, 2-[4-[2-(benzoxazol-2-ylthio)ethyl]piperazin-1-yl]-N-[4,6-bis(methylthio)-5-pyrimidyl)acetamide] was 171 to 172 °C; that for `Cc1cc(C)c(NC(=O)CN2CCN(CCSc3nc4ccccc4o3)CC2)c(C)n1` [Example 47, 2-[4-[2-(benzoxazol-2-ylthio)ethyl]piperazin-1-yl]-N-(2,4,6-trimethyl-3-pyridyl)acetamide] was 159 to 160 °C. Consider `CC(C)c1cc(C(C)C)c(NC(=O)CN2CCN(CCSc3nc4ccccc4o3)CC2)c(C(C)C)c1` [Example 48, 2-[4-[2-(benzoxazol-2-ylthio)ethyl]piperazin-1-yl]-N-(2,4,6-triisopropylphenyl)acetamide], for which the melting point was in the range of 160 to 163 °C. With `CC(C)c1cc(C(C)C)c(NC(=O)CN2CCN(CCSc3nc4ccccc4[nH]3)CC2)c(C(C)C)c1` [Example 49, 2-[4-[2-(benzimidazol-2-ylthio)ethyl]piperazin-1-yl]-N-(2,4,6-triisopropylphenyl)acetamide] the figure was 217 to 218 °C. With `CC(C)c1cc(C(C)C)c(NC(=O)CN2CCN(CCCSc3nc4ccccc4s3)CC2)c(C(C)C)c1` [Example 55, 2-[4-[3-(benzothiazol-2-ylthio)propyl]piperazin-1-yl]-N-(2,4,6-triisopropylphenyl)acetamide] the figure was 107 to 108 °C; with `CC(C)c1ccc([N+](=O)[O-])c(C(C)C)c1NC(=O)CN1CCN(CCSc2nc3ccccc3o2)CC1` [Example 58, 2-[4-[2-(benzoxazol-2-ylthio)ethyl]piperazin-1-yl]-N-(2,6-diisopropyl-3-nitrophenyl)acetamide], 143 to 145 °C; with `CC(C)c1ccc(N(C)C)c(C(C)C)c1NC(=O)CN1CCN(CCSc2nc3ccccc3o2)CC1` [Example 59, 2-[4-[2-(benzoxazol-2-ylthio)ethyl]piperazin-1-yl]-N-(2,6-diisopropyl-3-dimethylaminophenyl)acetamide], 159 to 161 °C. The value for `CSc1ccc(C(C)C)c(NC(=O)CN2CCN(CCSc3nc4ccccc4o3)CC2)c1C(C)C` [Example 60, 2-[4-[2-(benzoxazol-2-ylthio)ethyl]piperazin-1-yl]-N-[2,6-diisopropyl-3-(methylthio)phenyl]acetamide] was 148 to 150 °C; that for `CC(C)c1ccc(O)c(C(C)C)c1NC(=O)CN1CCN(CCSc2nc3ccccc3o2)CC1` [Example 61, 2-[4-[2-(benzoxazol-2-ylthio)ethyl]piperazin-1-yl]-N-(2,6-diisopropyl-3-hydroxyphenyl)acetamide] was 96 to 98 °C; that for `CC(C)c1ccc(OS(C)(=O)=O)c(C(C)C)c1NC(=O)CN1CCN(CCSc2nc3ccccc3o2)CC1` [Example 62, 2-[4-[2-(benzoxazol-2-ylthio)ethyl]-piperazin-1-yl]-N-(2,6-diisopropyl-3-mesyloxyphenyl)acetamide] was 164 to 166 °C (dec.).

`CC(=O)Oc1ccc(C(C)C)c(NC(=O)CN2CCN(CCSc3nc4ccccc4o3)CC2)c1C(C)C` [Example 63, 2-[4-[2-(benzoxazol-2-ylthio)ethyl]piperazin-1-yl]-N-(2,6-diisopropyl-3-acetyloxyphenyl)acetamide] returned a melting point of 129 to 131 °C.

Compound `CCOCCOc1ccc(C(C)C)c(NC(=O)CN2CCN(CCSc3nc4ccccc4o3)CC2)c1C(C)C` [Example 65, 2-[4-[2-(benzoxazol-2-ylthio)ethyl]piperazin-1-yl]-N-[2,6-diisopropyl-3-(2-ethoxyethyloxy)phenyl)acetamide] registered a melting point of 100 to 103 °C. The value for `CC(C)c1cc([N+](=O)[O-])c(O)c(C(C)C)c1NC(=O)CN1CCN(CCSc2nc3ccccc3o2)CC1` [Example 66, 2-[4-[2-(benzoxazol-2-ylthio)ethyl]piperazin-1-yl]-N-(2,6-diisopropyl-3-hydroxy-4-nitrophenyl)acetamide] was 139 to 141 °C.

As for `CC(C)c1ccc([N+](=O)[O-])c(C(C)C)c1NC(=O)CN1CCN(CCCSc2nc3ccccc3o2)CC1` [Example 67, 2-[4-[3-(benzoxazol-2-ylthio)propyl]piperazin-1-yl]-N-(2,6-diisopropyl-3-nitrophenyl)acetamide], the melting point fell in the range of 156 to 158 °C. The value for `CSc1ccc(C(C)C)c(NC(=O)CN2CCN(CCCSc3nc4ccccc4o3)CC2)c1C(C)C` [Example 68, 2-[4-[3-(benzoxazol-2-ylthio)propyl]piperazin-1-yl]-N-[2,6-diisopropyl-3-(methylthio)phenyl]acetamide] was 126 to 127 °C. In turn, `COc1ccc(C(C)C)c(NC(=O)CN2CCN(CCCSc3nc4ccccc4o3)CC2)c1C(C)C` [Example 70, 2-[4-[3-(benzoxazol-2-ylthio)propyl]piperazin-1-yl]-N-(2,6-diisopropyl-3-methoxyphenyl)acetamide] gave a melting point of 105 to 107 °C. The value for `CCOCCOc1ccc(C(C)C)c(NC(=O)CN2CCN(CCCSc3nc4ccccc4o3)CC2)c1C(C)C` [Example 71, 2-[4-[3-(benzoxazol-2-ylthio)propyl]piperazin-1-yl]-N-[2,6-diisopropyl-3-(2-ethoxyethyloxy)phenyl]acetamide] was 99 to 100 °C; that for `CC(C)c1cc(O)cc(C(C)C)c1NC(=O)CN1CCN(CCSc2nc3ccccc3o2)CC1` [Example 72, 2-[4-[2-(benzoxazol-2-ylthio)ethyl]piperazin-1-yl]-N-(2,6-diisopropyl-4-hydroxyphenyl)acetamide] was 162 to 164 °C. For the compound `CC(=O)Oc1cc(C(C)C)c(NC(=O)CN2CCN(CCSc3nc4ccccc4o3)CC2)c(C(C)C)c1` [Example 73, 2-[4-[2-(benzoxazol-2-ylthio)ethyl]piperazin-1-yl]-N-(4-acetoxy-2,6-diisopropylphenyl)acetamide], the melting point was 126 to 129 °C. The value for `CC(C)c1cc(OS(C)(=O)=O)cc(C(C)C)c1NC(=O)CN1CCN(CCSc2nc3ccccc3o2)CC1` [Example 74, 2-[4-[2-(benzoxazol-2-ylthio)ethyl]piperazin-1-yl]-N-(2,6-diisopropyl-4-mesyloxyphenyl)acetamide] was 115 to 117 °C; that for `COc1cc(C(C)C)c(NC(=O)CN2CCN(CCSc3nc4ccccc4o3)CC2)c(C(C)C)c1` [Example 75, 2-[4-[2-(benzoxazol-2-ylthio)ethyl]piperazin-1-yl]-N-(2,6-diisopropyl-4-methoxyphenyl)acetamide] was 115 to 117 °C. `CCOC(=O)COc1cc(C(C)C)c(NC(=O)CN2CCN(CCSc3nc4ccccc4o3)CC2)c(C(C)C)c1` [Example 77, 2-[4-[2-(benzoxazol-2-ylthio)ethyl]piperazin-1-yl]-N-[2,6-diisopropyl-4-ethoxycarbonylmethyloxyphenyl)acetamide] came in with a melting point of 118 to 120 °C. The value for `CCOCCOc1cc(C(C)C)c(NC(=O)CN2CCN(CCSc3nc4ccccc4o3)CC2)c(C(C)C)c1` [Example 78, 2-[4-[2-(benzoxazol-2-ylthio)ethyl]piperazin-1-yl]-N-[2,6-diisopropyl-4-(2-ethoxyethyl)oxyphenyl)acetamide] was 92 to 95 °C; that for `CC(C)c1cccc(C(C)C)c1NC(=O)NCCN1CCN(CCSc2nc3ccccc3o2)CC1` [Example 79, N-[2-[4-[2-(benzoxazol-2-ylthio)-ethyl]piperazin-1-yl]ethyl]-N′-(2,6-diisopropylphenyl)urea] was 152 to 153 °C; that for `CC(C)c1cccc(C(C)C)c1NC(=O)NCCN1CCN(CCSc2nc3ccccc3[nH]2)CC1` [Example 80, N-[2-[4-[2-(benzimidazol-2-ylthio)ethyl]piperazin-1-yl]ethyl]-N′-(2,6-diisopropylphenyl)urea] was 120 to 122 °C.

On to `CC(C)c1cccc(C(C)C)c1NC(=O)NCCN1CCN(CCSc2nc3ccccc3s2)CC1` [Example 81, N-[2-[4-[2-(benzothiazole-2-ylthio)ethyl]piperazin-1-yl]ethyl]-N′-(2,6-diisopropylphenyl)urea], for which the melting point is 147 to 149 °C.

(Values after patent publication US6969711B2, “Cyclic diamine compounds and medicine containing the same” (Kowa Company, Ltd., priority 1997, dated 2005).)
